Results as given in article PMC9616048, “Thermal proteome profiling reveals Haemonchus orphan protein HCO_011565 as a target of the nematocidal small molecule UMW-868” (Frontiers in Pharmacology, 2022).
“Also recorded” adds a separate entry of the source.

Tests used:
[1] = test system: H. contortus fourth-stage larvae (L4s) development; experiment: Dose-response evaluation, L4 development; format: cell-based, Haemonchus contortus; conditions: Haemonchus contortus; 168 h, analog series; read-out: L4 development inhibition (IC50 in µM)
Experimental: (§1) These evaluations were carried out to estimate the half-maximal inhibitory concentrations (IC50 values) for hit compounds against H. contortus xL3s. With reference to the two positive-control compounds (monepantel and moxidectin), IC50 values for compounds were estimated ([Preston et al., 2015]; [Taki et al., 2021a]) using two-fold serial dilution (in LB*; 9 points from 50 μM to 0.2 µM) in 96-well plates (cat. no. 3596; Corning) with larvae at a density of 300 H. contortus xL3s in 100 µl per well. Plates containing H. contortus xL3s were incubated at 38°C, 10% (v/v) CO2 and >90% relative humidity.
(§2) The motility of H. contortus xL3s and L4 development were measured following 168 h of incubation with compound ([Taki et al., 2021a]). Compound concentrations were log10-transformed and fitted using a variable slope four-parameter equation, constraining the highest value to 100% employing a least squares (ordinary) fit model using GraphPad Prism software (v.9.1.2). Compounds were tested by three independent experiments in triplicate. A one-way analysis of variance (ANOVA) with a Tukey’s multiple comparison test or an unpaired t-test was used to establish statistically significant differences in larval motility or development.

[2] = Cellular toxicity in HepG2 cells (crystal violet); format: cell-based, human; conditions: human, HepG2 human hepatoma cells; HepG2, 48 h; read-out: Cytotoxicity (48 h) CC50
Experimental: (§3) The toxicities of compounds on cell and mitochondria were assessed to estimate their half-maximal cytotoxic concentrations (CC50) and half-maximal mitotoxic concentrations (MC50), respectively. HepG2 human hepatoma cells were seeded into wells of a 96-well plate at a density of 5.5 × 10^4 cells per well in 80 µl of Dulbecco’s modified eagle medium (DMEM; with GlutaMax™ cat. no. 10566016 or 4 mM L-glutamine cat. no. 11966025; Thermo Fisher Scientific), supplemented with 25 mM D-glucose (cytotoxicity) or D-galactose (mitotoxicity), 10% (v/v) inactivated foetal bovine serum (iFBS), 100 IU/ml of penicillin, 100 μg/ml of streptomycin and 0.25 μg/ml of amphotericin B (designated DMEM*). Cells were allowed to adhere for 16 h at 37°C and 5% (v/v) CO2 at > 90% relative humidity, then, incubated for 48 h with individual, serially-diluted compounds (two-fold serial dilution in DMEM*; […]) in a final volume of 100 µl. For the assessment of toxicity on mitochondria, cells were starved of serum (DMEM* without iFBS) for 4 h prior to the 48 h-incubation with compounds ([Swiss and Will, 2011]; [Kamalian et al., 2015]). Two positive control compounds, doxorubicin (cytotoxic control) and M-666 (mitotoxic control) were each added to three individual wells in each 96-well plate at a single concentration of 10 µM. DMEM* + 0.25% (v/v) DMSO was added to 12 wells in each plate as negative controls. Monepantel and moxidectin were also serially diluted — prepared in the same manner as test compounds — and used as (“non-toxic”) reference compounds. After 48 h of incubation, cell viability was determined by the crystal violet staining method ([Śliwka et al., 2016]). The absorbance (595 nm) of treated cells was normalised with reference to the negative control (100% viability). To determine the CC50 and MC50 values, compound concentrations were log10-transformed, baseline-corrected using a respective positive control (doxorubicin or M-666) and fitted using a variable slope four-parameter equation with a least squares (ordinary) fit model using GraphPad Prism software (v.9.1.2). Compounds and controls were tested in triplicate.

H. contortus xL3s [3] = experiment: Dose-response evaluation, xL3 motility; format: cell-based; conditions: Haemonchus contortus, 168 h, analog series; read-out: xL3 motility reduction (IC50 in µM)
Experimental: as §1
as §2, with “Compound” for “The motility of H. contortus xL3s and L4 development were measured following 168 h of incubation with compound ([Taki et al., 2021a]). Compound”

eggs of H. contortus = experiment: Egg hatch assay; format: cell-based; conditions: Haemonchus contortus, 48 h; read-out: Egg hatch inhibition (IC50 in µM)
Experimental: Compounds were also assessed for their effect on the hatching of eggs of H. contortus in vitro. To do this, eggs were isolated from the faeces from sheep with patent (30 day-) H. contortus infection by sucrose flotation ([Mes et al., 2007]). Eggs were suspended in H2O at a concentration of one egg per µl. The eggs were dispensed into wells (in triplicate; 100 eggs per well) and incubated with two-fold serial dilutions (9 points from 50 μM to 0.2 µM in H2O) of individual test or control compounds for 48 h at 27°C and >90% relative humidity; wells with no compound were also included. The numbers (percentages) of eggs from which first-stage larvae (L1s) hatched were counted using a light microscope (M80, Leica) at a 40-times magnification. With reference to positive-control compounds (i.e., monepantel and moxidectin), IC50 values of compounds were calculated.

[4] = test system: mitochondria of HepG2 human hepatoma cells; experiment: Mitochondrial toxicity in HepG2 cells (galactose medium); format: cell-based; conditions: HepG2, 48 h
Experimental: as §3

H. contortus xL3s [5] = experiment: Cell lethality in xL3s (Sytox Green staining); format: cell-based, Haemonchus contortus
Experimental: Fluorescence staining was employed to assess the ability of UMW-868 to reduce the viability of H. contortus. The xL3s were dispensed in 96-well plates at a density of 300 xL3 per well, and incubated with compounds UMW-868 or A-3155, non-active analogs of UMW-868, at 50 μM at 38°C, 10% (v/v) CO2 and >90% relative humidity. After 90 h of incubation, H. contortus xL3s were stained with Sytox Green nucleic acid stain (Thermo Fisher Scientific) at the final concentration of 1 µM in LB* in the same 96-well plates and incubated for 1 h at 38°C and 10% (v/v) CO2 with >90% relative humidity. Following the incubation, the viability of larvae was evaluated by measuring the relative fluorescent units (RFU) of xL3s using an Omega FLUOstar microplate reader (BMG Labtech), with excitation and emission wavelengths set at 485 nm and 520 nm, respectively. The 96-well plates containing the stained larvae were returned to the incubator for further 78 h; after a total of 168 h of compound exposure, the stained larvae were examined under an inverted fluorescence microscope (DM IL, Leica) equipped with a green fluorescent protein filter (470/500/525 […]; Leica), and imaged using Leica Application Suite software (Leica).

[6] = test system: exsheathed third-stage larvae (xL3s) of H. contortus; experiment: High throughput screen, xL3 motility (infrared light beam-interference); format: cell-based; conditions: Haemonchus contortus, 90 h, read-out: Motility reduction at 90 h (%)
Experimental: An established platform was used for compound screening ([Taki et al., 2021a]). Using a semi-automated liquid handling robot (VIAFLO ASSIST PLUS, Integra Biosciences), compounds were individually diluted to […] in LB* containing 0.2% (v/v) DMSO and then dispensed in 20 µl into the wells of sterile 384-well flat bottom microtitre plates (cat. no. 3680; Corning); 320 compounds were arrayed on each plate, with 16 wells being negative controls (with LB* + 0.2% DMSO) and four wells containing each monepantel (Zolvix; Elanco), moxidectin (Cydectin; Virbac), monepantel + abamectin (Zolvix Plus; Elanco) and compound MIPS-0018666 (abbreviated here as M-666) ([Le et al., 2018]) as positive controls (20 µM). Following the dilution and dispensing of compounds into plates, 80 H. contortus xL3s in 20 μl of LB* were transferred to individual wells; after this step, the final concentrations were 20 µM of test- or positive-control compound, and 0.2% of DMSO. During dispensing, xL3s were maintained in a homogenous suspension using a constant stream of bubbles produced employing an aquarium pump (H2Pro). Plates containing H. contortus xL3s were incubated at 38 °C, 10% (v/v) CO2 and >90% relative humidity.
After 90 h of incubation with compounds (20 μM), H. contortus xL3s motility was measured for 15 min in individual wells of each plate by infrared light beam-interference ([Simonetta and Golombek, 2007]) using a WMicroTracker ONE instrument (Phylumtech). Raw data captured were normalised against measurements obtained for the positive (monepantel) and negative (LB* + 0.2% DMSO) controls to remove plate-to-plate variation by calculating the percentage of motility using the program GraphPad Prism (v.9.1.2; GraphPad Software). A compound was considered active (“hit”) if it reduced larval motility by ≥ 70%. To continually assess the performance of the screening assay, the Z′-factor ([Zhang et al., 1999]) was calculated (using data for the DMSO and the M-666 controls) for individual plates (n = 43) and was consistently ≥0.7; reliable assays achieve a Z′-factor of between 0.5 and 1. The signal to background (S/B) ratio (for the same controls) ([Sui and Wu, 2007]) was consistently >200.

[7] = test system: H. contortus xL3 to L4 development; experiment: High throughput screen, larval development and phenotype at 168 h; format: cell-based, Haemonchus contortus; conditions: Haemonchus contortus, development to L4
Experimental: Following the measurement of xL3 motility, plates were incubated again for 78 h (i.e., a total of 168 h) under the same conditions. Thereafter, 40 µl of 1% (v/v) iodine were added to individual wells, and worms examined using a light microscope (M80, Leica) at 60-times magnification to assess larval development, based on the presence/absence of a well-developed pharynx ([Sommerville, 1966]), and/or phenotypic alterations with respect to untreated xL3s.

## CCCc1ccc(-c2nc(-c3ccccc3)no2)cc1 [Compound A-3126]
[1]
  IC50: 50 µM
[2]
  CC50 at 48 h: > 50 µM
H. contortus xL3s [3]
  IC50: 12.1 µM
Eggs of H. contortus
  IC50: 13.1 µM
[4]
  Mitotoxicity (48 h) MC50: > 50.0 µM

## CCOc1ccc(-c2nc(-c3cccs3)no2)cc1 [Compound A-3134]
[1]
  IC50: > 50 µM
[2]
  CC50 at 48 h: > 50 µM
H. contortus xL3s [3]
  IC50: 7.8 µM
Eggs of H. contortus
  IC50: > 50 µM
[4]
  Mitotoxicity (48 h) MC50: > 50.0 µM

## CCCc1ccc(-c2nc(-c3ccc(C)cc3)no2)cc1 [Compound A-3136]
[1]
  IC50: 12.5 µM
[2]
  CC50 at 48 h: > 50 µM
H. contortus xL3s [3]
  IC50: 4.8 µM
Eggs of H. contortus
  IC50: 7.5 µM
[4]
  Mitotoxicity (48 h) MC50: > 50.0 µM

## NC(=O)c1ccc(-c2nc(-c3cccs3)no2)cc1 [Compound A-3155]
H. contortus xL3s [5]; 90 h
  lethality / viability of xL3s (in words): remained viable; also recorded: non-lethal
H. contortus xL3s [5]; 168 h of exposure
  dead cells detected microscopically in xL3s (Sytox Green): no dead cells were detected

## FC(F)Oc1ccc(-c2nc(-c3cccs3)no2)cc1 [Compound A-4340, 5-(4-(Difluoromethoxy)phenyl)-3-(thiophen-2-yl)-1,2,4-oxadiazole]
[1]
  IC50: 25 µM
[2]
  CC50 at 48 h: > 50 µM
H. contortus xL3s [3]
  IC50: 4 µM
Eggs of H. contortus
  IC50: > 50 µM
[4]
  Mitotoxicity (48 h) MC50: > 50.0 µM

## c1ccc(-c2nc(-c3cccs3)no2)cc1 [Compound A-4347, 5-Phenyl-3-(thiophen-2-yl)-1,2,4-oxadiazole]
[1]
  IC50: > 50 µM
[2]
  CC50 at 48 h: > 50 µM
H. contortus xL3s [3]
  IC50: > 50 µM
Eggs of H. contortus
  IC50: > 50 µM
[4]
  Mitotoxicity (48 h) MC50: > 50.0 µM

## FC(F)(F)Oc1ccc(-c2nc(-c3cccs3)no2)cc1 [Compound A-6316, 3-(Thiophen-2-yl)-5-(4-(trifluoromethoxy)phenyl)-1,2,4-oxadiazole]
[1]
  IC50: > 50 µM
[2]
  CC50 at 48 h: > 50 µM
H. contortus xL3s [3]
  IC50: 9.8 µM
Eggs of H. contortus
  IC50: > 50 µM
[4]
  Mitotoxicity (48 h) MC50: > 50.0 µM

## CCCc1ccc(-c2nc(-c3ccc(OC)cc3)no2)cc1 [Compound A-6318, 3-(4-Methoxyphenyl)-5-(4-propylphenyl)-1,2,4-oxadiazole]
[1]
  IC50: 1.6 µM
[2]
  CC50 at 48 h: > 50 µM
H. contortus xL3s [3]
  IC50: 1.4 µM
Eggs of H. contortus
  IC50: 38 µM
[4]
  Mitotoxicity (48 h) MC50: 48.2 µM

## FC(F)Oc1ccc(-c2nc(-c3ccc(C(F)(F)F)cc3)no2)cc1 [Compound A-6325, 5-(4-(Difluoromethoxy)phenyl)-3-(4-(trifluoromethyl)phenyl)-1,2,4-oxadiazole]
[1]
  IC50: 3.1 µM
[2]
  CC50 at 48 h: > 50 µM
H. contortus xL3s [3]
  IC50: 1.4 µM
Eggs of H. contortus
  IC50: > 50 µM
[4]
  Mitotoxicity (48 h) MC50: 36.3 µM

## CCCc1ccc(-c2nc(-c3ccc(C(F)(F)F)cc3)no2)cc1 [Compound A-6501]
[1]
  IC50: 6.3 µM
[2]
  CC50 at 48 h: > 50 µM
H. contortus xL3s [3]
  IC50: 1.6 µM
Eggs of H. contortus
  IC50: > 50 µM
[4]
  Mitotoxicity (48 h) MC50: > 50.0 µM

## CCOC(=O)c1ccc(Oc2ccc(Cl)cc2Cl)c([N+](=O)[O-])c1 [MBHF-hit36, ethyl 4-(2,4-dichlorophenoxy)-3-nitrobenzoate]
[6]
  inhibition at 20 µM: 70.2%
[7]
  inhibition at 20 µM: < 80%

## c1ccc(-c2noc(-c3cccs3)n2)cc1 [Tioxazafen, 3-Phenyl-5-(thiophen-2-yl)-1,2,4-oxadiazole, reference compound]
[1]
  IC50: > 50 µM
[2]
  CC50 at 48 h: > 50 µM
H. contortus xL3s [3]
  IC50: > 50 µM
Eggs of H. contortus
  IC50: > 50 µM
[4]
  Mitotoxicity (48 h) MC50: > 50.0 µM
